Measured values: US10071967B2, “N-cycloalkyl-N-{[2-(1-substitutedcycloalkyl)phenyl]methylene}-(thio)carboxamide derivatives” (BAYER CROPSCIENCE AKTIENGESELLSCHAFT, priority 2013, dated 2018)

Test: log P by HPLC on a reversed-phase column (C 18), EEC Directive 79/831 Annex V.A8
Format: physicochemical
Settings: 0.1% aqueous formic acid and acetonitrile
Protocol: In table 1, the log P values were determined in accordance with EEC Directive 79/831 Annex V.A8 by HPLC (High Performance Liquid Chromatography) on a reversed-phase column (C 18), using the method described below: Temperature: 40° C.; Mobile phases: 0.1% aqueous formic acid and acetonitrile; linear gradient from 10% acetonitrile to 90% acetonitrile. Calibration was carried out using unbranched alkan-2-ones (comprising 3 to 16 carbon atoms) with known log P values (determination of the log P values by the retention times using linear interpolation between two successive alkanones). lambda-max-values were determined using UV-spectra from 200 nm to 400 nm and the peak values of the chromatographic signals.

[1] = Table 4, compounds of formula (IV), HPLC C 18, 40° C.
[2] = HPLC, reversed-phase column (C 18), 40° C., linear gradient 10% to 90% acetonitrile

| Compound | logP [2] | other results |
| --- | --- | --- |
| 1-(2-formyl-4-methylphenyl)cyclopropanecarbonitrile [IV.16] | – | logP [1]: 2.08 |
| 3-fluoro-2-(1-methylcyclopropyl)benzaldehyde [IV.14] | – | logP [1]: 3.13 |
| Cn1cc(C(=O)N(Cc2cccc3c2C2(CCC3)CC2(Cl)Cl)C2CC2)c(C(F)F)n1 (racemic) [Ia.04] | – | logP (Table 2, compounds of formula (I), HPLC C 18, 40° C.): 4.06 |
| Cn1cc(C(=O)N(Cc2cccc(Cl)c2C2(C)CC2)C2CC2)c(C(F)F)n1 [Example 1.001] | 3.89 | – |
| Cc1cc(C(=O)N(Cc2cccc(Cl)c2C2(C)CC2)C2CC2)c(C)o1 [Example 1.002] | 4.92 | – |
| Cn1cc(C(=O)N(Cc2cccc(F)c2C2(C)CC2)C2CC2)c(C(F)F)n1 [Example 1.003] | 3.46 | – |
| Cc1nn(C)cc1C(=O)N(Cc1cccc(F)c1C1(C)CC1)C1CC1 [Example 1.004] | 2.98 | – |
| Cc1nn(C)cc1C(=S)N(Cc1cccc(F)c1C1(C)CC1)C1CC1 [Example 1.005] | 3.64 | – |
| Cn1cc(C(=S)N(Cc2cccc(F)c2C2(C)CC2)C2CC2)c(C(F)F)n1 [Example 1.006] | 4.04 | – |
| Cc1cc(C(=O)N(Cc2ccc(Cl)cc2C2(C)CC2)C2CC2)c(C)o1 [Example 1.007] | 4.98 | – |
| Cc1cc(C(=O)N(Cc2ccc(Cl)cc2C2(C)CC2)C2CC2)c(C(F)F)o1 [Example 1.008] | 4.98 | – |
| Cn1nc(C(=O)N(Cc2ccc(Cl)cc2C2(C)CC2)C2CC2)c(C(F)F)n1 [Example 1.009] | 4.54 | – |
| Cn1cc(C(=O)N(Cc2ccc(Cl)cc2C2(C)CC2)C2CC2)c(C(F)F)n1 [Example 1.010] | 3.96 | – |
| Cn1nc(C(=S)N(Cc2ccc(Cl)cc2C2(C)CC2)C2CC2)c(C(F)F)n1 [Example 1.011] | 5.11 | – |
| Cc1cc(C(=S)N(Cc2ccc(Cl)cc2C2(C)CC2)C2CC2)c(C)o1 [Example 1.012] | 5.65 | – |
| Cn1cc(C(=O)N(Cc2ccc(F)cc2C2(C)CC2)C2CC2)c(C(F)F)n1 [Example 1.013] | 3.52 | – |
| Cc1nn(C)c(F)c1C(=O)N(Cc1ccc(F)cc1C1(C)CC1)C1CC1 [Example 1.014] | 3.46 | – |
| Cc1nn(C)c(F)c1C(=S)N(Cc1ccc(F)cc1C1(C)CC1)C1CC1 [Example 1.015] | 4.18 | – |
| Cc1ccc(CN(C(=O)c2c(C)nn(C)c2F)C2CC2)c(C2(C)CC2)c1 [Example 1.016] | 3.71 | – |
| COc1ccc(CN(C(=O)c2cn(C)nc2C(F)F)C2CC2)c(C2(C)CC2)c1 [Example 1.017] | 3.31 | – |

| Compound | logP [2] | other results |
| --- | --- | --- |
| COc1ccc(CN(C(=O)c2c(C)nn(C)c2F)C2CC2)c(C2(C)CC2)c1 [Example 1.018] | 3.23 | – |
| Cn1cc(C(=O)N(Cc2cc(F)c(F)cc2C2(C)CC2)C2CC2)c(C(F)F)n1 [Example 1.019] | 3.68 | – |
| COc1cc(CN(C(=O)c2cn(C)nc2C(F)F)C2CC2)c(C2(C)CC2)cc1OC [Example 1.020] | 2.98 | – |
| Cc1cc(C(=O)N(Cc2ccc(-c3ccccc3)cc2C2(C)CC2)C2CC2)c(C)o1 [Example 1.021] | 5.48 | – |
| Cn1nc(C(=O)N(Cc2ccc(-c3ccccc3)cc2C2(C)CC2)C2CC2)c(C(F)F)n1 [Example 1.022] | 5.00 | – |
| Cc1nn(C)c(Cl)c1C(=O)N(Cc1cc(Br)ccc1C1(C)CC1)C1CC1 [Example 1.023] | 4.24 | – |
| Cn1cc(C(=O)N(Cc2cc(Br)ccc2C2(C)CC2)C2CC2)c(C(F)F)n1 [Example 1.024] | 3.94 | – |
| Cn1cc(C(F)F)c(C(=O)N(Cc2cc(Br)ccc2C2(C)CC2)C2CC2)n1 [Example 1.025] | 4.39 | – |
| Cc1nn(C)cc1C(=O)N(Cc1cc(Br)ccc1C1(C)CC1)C1CC1 [Example 1.026] | 3.44 | – |
| Cc1nn(C)c(F)c1C(=O)N(Cc1cc(Br)ccc1C1(C)CC1)C1CC1 [Example 1.027] | 3.99 | – |
| Cc1cc(C(=O)N(Cc2cc(Br)ccc2C2(C)CC2)C2CC2)c(C)o1 [Example 1.028] | 5.08 | – |
| Cn1cc(C(=O)N(Cc2cc(Cl)ccc2C2(C)CC2)C2CC2)c(C(F)F)n1 [Example 1.029] | 3.83 | – |
| Cc1c(C(=O)N(Cc2cc(Cl)ccc2C2(C)CC2)C2CC2)c(C(F)F)nn1C [Example 1.030] | 4.06 | – |
| Cn1cc(C(=S)N(Cc2cc(Cl)ccc2C2(C)CC2)C2CC2)c(C(F)F)n1 [Example 1.031] | 4.37 | – |
| Cn1cc(C(=O)N(Cc2cc(F)ccc2C2(C)CC2)C2CC2)c(C(F)F)n1 [Example 1.032] | 3.51 | – |
| Cc1ccc(C2(C)CC2)c(CN(C(=O)c2sccc2I)C2CC2)c1 [Example 1.034] | 5.14 | – |
| Cc1ccc(C2(C)CC2)c(CN(C(=O)c2c(C(F)F)nn(C)c2C(F)F)C2CC2)c1 [Example 1.035] | 4.36 | – |
| Cc1ccc(C2(C)CC2)c(CN(C(=O)c2c(C(F)F)nn(C)c2C)C2CC2)c1 [Example 1.036] | 3.99 | – |
| Cc1ccc(C2(C)CC2)c(CN(C(=O)c2cn(C)nc2C(F)(F)F)C2CC2)c1 [Example 1.037] | 4.16 | – |
| Cc1ccc(C2(C)CC2)c(CN(C(=O)c2c(C(F)(F)F)nn(C)c2F)C2CC2)c1 [Example 1.038] | 4.61 | – |

| Compound | logP [2] | other results |
| --- | --- | --- |
| Cc1ccc(C2(C)CC2)c(CN(C(=O)c2c(C(F)F)nn(C(C)(C)C)c2C(F)F)C2CC2)c1 [Example 1.039] | 5.35 | – |
| Cc1ccc(C2(C)CC2)c(CN(C(=O)c2c(C)nn(C)c2F)C2CC2)c1 [Example 1.040] | 3.73 | – |
| Cc1ccc(C2(C)CC2)c(CN(C(=O)c2c(C(F)(F)F)nn(C)c2Cl)C2CC2)c1 [Example 1.041] | 4.82 | – |
| Cc1ccc(C2(C)CC2)c(CN(C(=O)c2cc(C)oc2C(F)F)C2CC2)c1 [Example 1.042] | 4.62 | – |
| Cc1ccc(C2(C)CC2)c(CN(C(=O)c2ccoc2C(F)F)C2CC2)c1 [Example 1.043] | 4.35 | – |
| Cc1ccc(C2(C)CC2)c(CN(C(=O)c2nc(C)oc2C(F)F)C2CC2)c1 [Example 1.044] | 4.56 | – |
| Cc1ccc(C2(C)CC2)c(CN(C(=O)c2cc(C3CC3)oc2C)C2CC2)c1 [Example 1.045] | 5.22 | – |
| Cc1ccc(C2(C)CC2)c(CN(C(=O)c2oc(C)nc2C(F)F)C2CC2)c1 [Example 1.046] | 4.39 | – |
| Cc1ccc(C2(C)CC2)c(CN(C(=O)c2cc(C)oc2C)C2CC2)c1 [Example 1.047] | 4.85 | – |
| Cc1ccc(C2(C)CC2)c(CN(C(=O)c2c(C)nn(C)c2Cl)C2CC2)c1 [Example 1.048] | 3.96 | – |
| C=Cc1cc(C(=O)N(Cc2cc(C)ccc2C2(C)CC2)C2CC2)c(C)o1 [Example 1.049] | 5.00 | – |
| Cc1ccc(C2(C)CC2)c(CN(C(=O)c2nn(C)nc2C(F)F)C2CC2)c1 [Example 1.050] | 4.37 | – |
| CCc1cc(C(=O)N(Cc2cc(C)ccc2C2(C)CC2)C2CC2)c(C)o1 [Example 1.051] | 5.25 | – |
| Cc1ccc(C2(C)CC2)c(CN(C(=S)c2cn(C)nc2C(F)F)C2CC2)c1 [Example 1.052] | 4.39 | – |
| Cc1ccc(C2(C)CC2)c(CN(C(=S)c2oc(C)nc2C(F)F)C2CC2)c1 [Example 1.053] | 4.92 | – |
| Cc1ccc(C2(C)CC2)c(CN(C(=S)c2sccc2I)C2CC2)c1 [Example 1.054] | 5.72 | – |
| Cc1cc(C(=O)N(Cc2c(C3(C)CC3)ccc(C)c2F)C2CC2)c(C)o1 [Example 1.055] | 5.08 | – |
| Cc1nn(C)c(F)c1C(=O)N(Cc1ccc2c(c1C1(C)CC1)OCO2)C1CC1 [Example 1.056] | 3.06 | – |
